In patent US20090088380A1, “GHRH ANALOGS AND THERAPEUTIC USES THEREOF” (priority 2007, published 2009):
Non-standard residues stand in square brackets, D forms with d. Residues, ends and D or L forms follow the SMILES beside them.

Assays:
human GHRH receptor = target: T1, human GHRH receptor (Homo sapiens, UniProt Q02643); assay: 125I-GHRH competitive binding assay in BHK cell membrane preparations; conditions: in comparison with hGHRH(1-29)NH2, ratio IC50 hGHRH(1-29)-NH2/IC50 analog
T1 construct: expressed in transfected cells; host or cells: BHK (baby hamster kidney) 570 cells, membrane preparations
T1 sequence (Q02643 23-423): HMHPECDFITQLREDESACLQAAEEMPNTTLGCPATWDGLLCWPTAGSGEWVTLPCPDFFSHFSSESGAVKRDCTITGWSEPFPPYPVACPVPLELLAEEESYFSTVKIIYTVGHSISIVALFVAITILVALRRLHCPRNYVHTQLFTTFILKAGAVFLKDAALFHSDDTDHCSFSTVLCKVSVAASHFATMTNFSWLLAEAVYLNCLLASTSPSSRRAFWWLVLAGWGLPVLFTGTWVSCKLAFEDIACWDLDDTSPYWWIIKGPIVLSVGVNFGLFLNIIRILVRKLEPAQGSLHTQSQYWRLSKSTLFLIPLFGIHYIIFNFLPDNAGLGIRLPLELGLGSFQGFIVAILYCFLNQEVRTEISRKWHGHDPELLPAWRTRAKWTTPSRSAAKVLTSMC
Description: Non specific binding was determined in presence of 1 μM hGHRH(1-29)NH2. Incubation was carried out at equilibrium (23° C., 60 min) and stopped by centrifugation (12,000 g, 5 min, at 4° C.). The radioactivity content in pellets was determined by gamma counting. The affinity of hGHRH(1-29) NH2 was tested in each experiment to assess the validity of the assay and determine the relative affinity of the analogs.
Values represent the mean±SEM of 3 experiments performed in triplicate for the analogs and the mean±SEM of 2 experiments performed in triplicate for hGHRH(1-44) NH2.
For the binding assay results presented in Tables 8 to 11, values represent the mean±SEM of 8 independent experiments performed in triplicate for the analogs and the mean±SEM of 4 experiments performed in triplicate for hGHRH(1-29)NH2. […] The relative affinity was obtained by taking the ratio IC50 of hGHRH (1-29)-NH2/IC50 analog.

[1] = test system: malnourished subjects with CKD; assay: Phase II CKD: hormones (TSH, free thyroxin, testosterone, oestradiol); format: in vivo, human; conditions: ITT
Description: A blood sample was taken at screening for analysis of TSH and free thyroxin. […] The hormones testosterone (nmol/L) and oestradiol (nmol/L) were measured at baseline and on Day 28 because those could be affected by GH and could lead to secondary changes in body composition. Samples were analysed locally.

[2] = Day 0, listed as GHRH(1-29)NH2 synthetic analog
[3] = Day 28, listed as GHRH(1-29)NH2 synthetic analog

SMILES: CC[C@H](C)[C@H](NC(=O)[C@H](C)NC(=O)[C@H](CC(=O)O)NC(=O)[C@@H](C)NC(=O)[C@@H](N)Cc1ccc(O)cc1)C(=O)N[C@@H](Cc1ccccc1)C(=O)N[C@H](C(=O)N[C@@H](CC(N)=O)C(=O)N[C@@H](CO)C(=O)N[C@H](Cc1ccc(O)cc1)C(=O)N[C@@H](CCCNC(=N)N)C(=O)N[C@@H](CCCCN)C(=O)N[C@H](C(=O)N[C@@H](CC(C)C)C(=O)N[C@H](C)C(=O)N[C@@H](CCC(N)=O)C(=O)N[C@@H](CC(C)C)C(=O)N[C@@H](CO)C(=O)N[C@@H](C)C(=O)N[C@@H](CCCNC(=N)N)C(=O)N[C@@H](CCCCN)C(=O)N[C@@H](CCCCN)C(=O)N[C@@H](CC(C)C)C(=O)N[C@@H](CCC(N)=O)C(=O)N[C@@H](CC(=O)O)C(=O)N[C@H](C(=O)N[C@@H](CCSC)C(=O)N[C@@H](CO)C(=O)N[C@@H](CCCNC(=N)N)C(N)=O)[C@@H](C)CC)C(C)C)[C@@H](C)O [GHRH analog #5, [D-Ala^2, D-Tyr^10, D-Ala^15, Lys^22] hGHRH(1-29)-NH2] (H-Y[dA]DAIFTNS[dY]RKVL[dA]QLSARKKLQDIMSR-NH2)
- Relative binding affinity (R1) in hGHRH-R BHK-expressing cells (human GHRH receptor; listed as 5): 939 ± 249
- Relative binding affinity (R1) in hGHRH-R BHK-expressing cells (human GHRH receptor; listed as GHRH analog # 5): 939 ± 249
- Relative binding affinity (R1) in hGHRH-R BHK-expressing cells (human GHRH receptor; listed as GHRH(1-29)NH2 synthetic analog): 939
- Oestradiol: mean (SD) ([1]; Day 0): 30.400 (23.333) pg/mL
- Testosterone: mean (SD) ([1]; Day 0): 1.550 (1.974) ng/mL
- Oestradiol: mean (SD) [1, 2]: 30.400 pg/mL
- Testosterone: mean (SD) [1, 2]: 1.550 ng/mL
- Oestradiol: mean (SD) ([1]; Day 28): 16.281 (10.896) pg/mL
- Testosterone: mean (SD) ([1]; Day 28): 1.032 (1.327) ng/mL
- Oestradiol: mean (SD) [1, 3]: 16.281 pg/mL
- Testosterone: mean (SD) [1, 3]: 1.032 ng/mL
